The results in this text go back to patent publication US7351711B2, “Tricyclic indanyls as integrin inhibitors” (Janssen Pharmaceutical, N.V., priority 2003, dated 2008).

Assay [1] addresses T1, Human αvβ3 (Homo sapiens, UniProt P05106+P06756).
T1 construct: purchased Chemicon International Inc., Temecula, Calif
The assay is described as follows: In vitro solid phase purified αvβ3 binding assay (vitronectin/αvβ3). The conditions noted are these: for IC50: read-out: Antagonist IC50 Activity αVβ3. The protocol: In Vitro Solid Phase Purified αvβ3 Binding Assay
(§1) The vitronectin/αvβ3 binding assay methods were derived from Mehta et al. (Biochem J,. 1998, 330, 861). Human αvβ3 (Chemicon International Inc., Temecula, Calif.), at a concentration of 1 μg/ml dissolved in Tris buffer (20 mM Tris, 1 mM CaCl2, 1 mM MgCl2, 10 μM MnCl2, 150 mM NaCl), was immobilized on Immulon 96 well plates (Dynex Technologies, Chantilly, Va.) overnight at 4° C. Plates were washed and treated with blocking buffer (3% BSA in Tris buffer) for 2 h at 37° C. Plates were then rinsed 2 times with assay buffer comprised of Tris buffer. Synthesized compounds were added to wells in duplicate immediately prior to the addition of 2 nM vitronectin (Sigma, St. Louis, Mo.). Following a 3 hour incubation at 37° C., plates were washed 5 times in assay buffer. An anti-human vitronectin IgG rabbit polyclonal antibody (Calbiochem, San Diego, Calif.) was added (1:2000) and plates were incubated for 1 hour at room temperature. VectaStain ABC peroxidase kit reagents (Vector Laboratories, Burlingame, Calif.) employing a biotin labeled anti-rabbit IgG, were utilized for detection of bound antibody. Plates were read at 490 nm on a Molecular Devices (Sunnyvale, Calif.) microplate reader.

The target of assay [2] is T2, human purified αVβ5 (Homo sapiens, UniProt P06756+P18084).
T2 construct: purchased Chemicon International, Inc
The assay is described as follows: In vitro solid phase purified αvβ5 binding assay (vitronectin/αVβ5). The conditions noted are these: inhibition of vitronectin binding to immobilized αVβ5; read-out: Antagonist IC50 Activity αVβ5. The protocol:
as §1
In Vitro Solid Phase Purified αvβ5 Binding Assay
The vitronectin/αVβ5 binding assay method was performed in the same manner as the vitronectin/αVβ3 binding assay of Example 2, with the difference that 1 μg/mL of human purified αVβ5 (Chemicon International, Inc.) was immobilized onto Immulon 96 well plates (Dynex Technologies) instead of αVβ3. All other aspects of the assay including buffers, reagents and incubation times remain unchanged.

Like-named read-outs stand apart in the source and are kept apart here.

T1 sequence (P06756 31-889 limits assumed): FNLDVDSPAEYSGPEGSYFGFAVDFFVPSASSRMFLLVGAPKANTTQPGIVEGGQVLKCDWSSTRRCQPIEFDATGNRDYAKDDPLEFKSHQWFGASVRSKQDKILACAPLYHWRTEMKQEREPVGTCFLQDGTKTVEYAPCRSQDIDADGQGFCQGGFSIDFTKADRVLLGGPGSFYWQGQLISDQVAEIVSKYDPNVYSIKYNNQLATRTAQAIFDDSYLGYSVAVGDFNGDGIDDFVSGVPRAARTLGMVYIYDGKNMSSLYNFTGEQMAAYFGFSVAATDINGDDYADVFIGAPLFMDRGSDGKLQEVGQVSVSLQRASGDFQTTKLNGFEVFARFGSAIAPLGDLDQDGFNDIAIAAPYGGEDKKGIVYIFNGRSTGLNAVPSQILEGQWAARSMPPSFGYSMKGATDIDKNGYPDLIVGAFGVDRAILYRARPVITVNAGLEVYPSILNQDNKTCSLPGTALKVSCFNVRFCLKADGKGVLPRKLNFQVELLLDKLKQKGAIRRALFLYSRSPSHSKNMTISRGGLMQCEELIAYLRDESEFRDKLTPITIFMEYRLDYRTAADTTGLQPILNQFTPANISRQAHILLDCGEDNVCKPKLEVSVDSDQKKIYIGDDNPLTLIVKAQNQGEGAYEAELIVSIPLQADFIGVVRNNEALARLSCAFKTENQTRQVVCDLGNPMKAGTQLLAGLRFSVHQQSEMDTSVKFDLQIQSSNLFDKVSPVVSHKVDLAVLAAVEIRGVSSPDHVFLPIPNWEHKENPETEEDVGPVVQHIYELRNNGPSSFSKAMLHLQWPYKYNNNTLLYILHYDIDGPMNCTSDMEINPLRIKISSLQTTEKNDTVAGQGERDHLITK
T1 sequence (P06756 891-1048 partner limits assumed): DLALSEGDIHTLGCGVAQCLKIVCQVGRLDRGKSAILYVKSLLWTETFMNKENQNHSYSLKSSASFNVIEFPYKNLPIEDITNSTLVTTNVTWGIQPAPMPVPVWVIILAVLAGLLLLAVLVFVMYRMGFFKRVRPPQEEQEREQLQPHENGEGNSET
T1 sequence (P05106 27-788): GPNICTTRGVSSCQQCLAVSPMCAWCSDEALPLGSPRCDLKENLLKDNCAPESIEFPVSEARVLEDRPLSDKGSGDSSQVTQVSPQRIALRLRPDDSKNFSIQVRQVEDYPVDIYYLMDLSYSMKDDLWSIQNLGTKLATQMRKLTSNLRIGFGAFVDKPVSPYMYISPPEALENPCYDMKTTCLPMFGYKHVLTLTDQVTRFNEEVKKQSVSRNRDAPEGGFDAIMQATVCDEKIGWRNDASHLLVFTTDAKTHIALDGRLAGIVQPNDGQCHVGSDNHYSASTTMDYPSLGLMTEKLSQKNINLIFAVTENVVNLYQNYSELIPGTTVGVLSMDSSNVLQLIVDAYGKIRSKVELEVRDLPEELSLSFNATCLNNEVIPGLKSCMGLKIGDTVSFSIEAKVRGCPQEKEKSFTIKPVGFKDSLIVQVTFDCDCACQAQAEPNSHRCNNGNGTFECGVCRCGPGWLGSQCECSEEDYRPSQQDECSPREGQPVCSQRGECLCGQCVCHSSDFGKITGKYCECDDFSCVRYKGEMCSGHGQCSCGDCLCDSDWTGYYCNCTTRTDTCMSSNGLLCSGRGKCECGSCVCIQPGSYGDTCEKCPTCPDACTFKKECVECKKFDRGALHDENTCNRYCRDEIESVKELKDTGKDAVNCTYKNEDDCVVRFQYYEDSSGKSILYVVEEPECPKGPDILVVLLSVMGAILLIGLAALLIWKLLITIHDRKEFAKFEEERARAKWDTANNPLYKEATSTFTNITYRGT
T2 sequence (P06756 31-889 limits assumed): as the sequence (P06756 31-889 limits assumed) above
T2 sequence (P06756 891-1048 partner limits assumed): as the sequence (P06756 891-1048 partner limits assumed) above
T2 sequence (P18084 24-799): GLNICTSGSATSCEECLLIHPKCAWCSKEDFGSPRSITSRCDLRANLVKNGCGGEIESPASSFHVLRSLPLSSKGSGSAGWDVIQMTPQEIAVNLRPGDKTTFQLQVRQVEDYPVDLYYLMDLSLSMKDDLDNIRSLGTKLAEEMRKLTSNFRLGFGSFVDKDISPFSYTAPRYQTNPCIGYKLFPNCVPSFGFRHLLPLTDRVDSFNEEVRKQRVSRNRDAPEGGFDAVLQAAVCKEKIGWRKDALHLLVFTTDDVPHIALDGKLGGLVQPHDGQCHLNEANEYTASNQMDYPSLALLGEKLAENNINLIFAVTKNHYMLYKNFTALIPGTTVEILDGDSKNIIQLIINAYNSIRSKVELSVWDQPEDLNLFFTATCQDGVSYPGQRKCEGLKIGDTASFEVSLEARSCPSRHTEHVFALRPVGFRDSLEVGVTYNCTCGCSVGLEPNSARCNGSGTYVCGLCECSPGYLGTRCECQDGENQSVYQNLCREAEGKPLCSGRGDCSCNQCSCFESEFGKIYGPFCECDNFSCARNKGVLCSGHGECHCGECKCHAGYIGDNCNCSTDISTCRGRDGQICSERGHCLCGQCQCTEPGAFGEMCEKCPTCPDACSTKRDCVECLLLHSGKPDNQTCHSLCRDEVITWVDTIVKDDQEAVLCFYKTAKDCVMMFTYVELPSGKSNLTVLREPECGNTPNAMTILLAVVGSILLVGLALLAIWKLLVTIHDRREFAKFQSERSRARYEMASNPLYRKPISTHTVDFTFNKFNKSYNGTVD

The term IC50 denotes the concentration needed to halve the response being measured. Turning to `O=C(O)CC1c2ccccc2C2CN(C(=O)CCCc3ccc4c(n3)NCCC4)CCC12` (racemic) [Cpd 3], the 50% inhibitory concentration (IC50) in assay [1] stood at 0.085 ± 0.008 µM; in assay [2], 0.23 ± 0.04 µM.

Consider `O=C(O)CC1c2ccccc2C2CN(C(=O)CCc3ccc4c(n3)NCCC4)CCC12` (racemic) [Cpd 4], for which the IC50 in assay [1] was determined as 0.087 µM; in assay [2], 0.189 µM.

Turning to `O=C(O)CC1c2ccccc2C2CCN(C(=O)CCc3ccc4c(n3)NCCC4)CC21` (racemic) [Cpd 11], the IC50 in assay [1] was > 0.001 µM.

As to `O=C(O)CC1c2ccccc2C2CN(C(=O)CCc3ccc4c(n3)NCCC4)CC12` (racemic) [Cpd 12], the values for the IC50 in assay [1] and in assay [2] were 0.026 ± 0.008 µM and 0.015 ± 0.002 µM, respectively.

On to `O=C(O)CC1c2ccccc2C2CN(C(=O)CCCc3ccc4c(n3)NCCC4)CC12` (racemic) [Cpd 15], for which the IC50 in assay [1] was 0.411 µM; in assay [2], 0.538 µM.

Regarding `O=C(O)C[C@@H]1c2ccccc2[C@@H]2CN(C(=O)Cc3cccc(NC4=NCCCN4)c3)CC[C@H]12` (single isomer, unassigned) [Cpd 1, (3-{2-[3-(1,4,5,6,-Tetrahydro-pyrimidin-2-ylamino)-phenyl]-acetyl}-2,3,4,4a,9,9a-hexahydro-1H-3-aza-fluoren-9-yl)-acetic acid], the IC50 in assay [1] amounted to 0.066 ± 0.006 µM; in assay [2], 1.02 ± 0.18 µM.

As for `O=C(O)C[C@H]1c2ccccc2[C@@H]2CN(C(=O)Cc3cccc(NC4=NCCCN4)c3)CC[C@H]12` (single isomer, unassigned) [Cpd 2, (3-{2-[3-(1,4,5,6,-Tetrahydro-pyrimidin-2-ylamino)-phenyl]-acetyl}-2,3,4,4a,9,9a-hexahydro-1H-3-aza-fluoren-9-yl)-acetic acid], the values for the concentration for half-maximal inhibition (IC50) in assay [1] and in assay [2] were 0.126 ± 0.04 µM and 0.217 ± 0.005 µM, respectively.

In the case of `O=C(O)CC1c2ccccc2C2CN(C(=O)CCc3ccc4c(n3)NCCC4)CC12` (single isomer, unassigned) [Cpd 13, [2-(3-5,6,7,8-Tetrahydro-[1,8]naphthyrin-2-yl-propionyl)-1,2,3,3a,8,8a-hexahydro-2-aza-cyclopenta[a]inden-8-yl]-acetic acid], the IC50 in assay [1] is 0.29 ± 0.09 µM; in assay [2], 0.26 ± 0.06 µM.

As for `O=C(O)CC1c2ccccc2C2CN(C(=O)CCCNc3ccccn3)CCC12` (stereo not drawn) [Cpd 6, {3-[4-(Pyridin-2-ylamino)-butyryl]-2,3,4,4a,9,9a-hexahydro-1H-3-aza-fluoren-9-yl}-acetic acid], the IC50 in assay [1] is > 0.001 µM.

For the compound `O=C(O)CC1c2ccccc2C2CN(C(=O)CCCNc3ccccn3)CCC12` (stereo not drawn) [Cpd 7, {3-[4-(Pyridin-2-ylamino)-butyryl]-2,3,4,4a,9,9a-hexahydro-1H-3-aza-fluoren-9-yl}-acetic acid], the IC50 in assay [1] (inhibition of 2 nM vitronectin binding to immobilized αvβ3) was > 0.001 µM.

In the case of `O=C(O)CC1c2ccccc2C2CCN(C(=O)CCCc3ccc4c(n3)NCCC4)CC21` (stereo not drawn) [Cpd 9, [2-(4-5,6,7,8-Tetrahydro-[1,8]naphthyridine-2-yl-butyryl)-2,3,4,4a,9,9a-hexahydro-1H-indeno[2,1-c]pyridin-9-yl]-acetic acid], the “Antagonist activity αVβ3, % @ 50 μM” value in assay [1] was determined as 41% @.

With `O=C(O)CC1c2ccccc2C2CCN(C(=O)CCCc3ccc4c(n3)NCCC4)CC21` (stereo not drawn) [Cpd 10, [2-(4-5,6,7,8-Tetrahydro-[1,8]naphthyridine-2-yl-butyryl)-2,3,4,4a,9,9a-hexahydro-1H-indeno[2,1-c]pyridin-9-yl]-acetic acid], the “Antagonist activity αVβ3, % @ 50 μM” value in assay [1] was 51% @ 50 μM.

Take `O=C(O)C[C@H]1c2ccccc2[C@@H]2CN(C(=O)CCc3ccc4c(n3)NCCC4)C[C@H]12` [Cpd 14, [2-(3-5,6,7,8-Tetrahydro-[1,8]naphthyrin-2-yl-propionyl)-1,2,3,3a,8,8a-hexahydro-2-aza-cyclopenta[a]inden-8-yl]-acetic acid]: the figures for the IC50 in assay [1] and in assay [2] were 0.017 ± 0.003 µM and 0.0058 ± 0.0012 µM, respectively.
